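Each compound was tested at five concentrations against cells in 96-well plates for 48 hours. TGI is the concentration that stops growth completely.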 *1 amine or outer side, *2 acyl side, *3 side chain or, on linkers, in order; H or OH if unused. Where a SMILES comes first, the peptide text is derived from it. [ ]: non-standard residue; d: D form. The star is where a group is joined. X32 = C[C@H](N[*:1])C(=O)C(C)(C)C(=O)[*:2]; Hmpa(2S,3S) = CC[C@H](C)[C@H](O)C(=O)O; NMeY = CN[C@@H](Cc1ccc(O)cc1)C(=O)O; NMeL = CN[C@@H](CC(C)C)C(=O)O; NMeV = CN[C@H](C(=O)O)C(C)C; Boc = CC(C)(C)OC(=O)*; βAla = NCCC(=O)O
Experiments:
Experiment in all cases: growth of human tumour cells (NCI), 48 h
EKVX NSCLC = test system: EKVX NSCLC
HCT-15 colon = test system: HCT-15 colon
HT29 colon = test system: HT29 colon
KM12 colon = test system: KM12 colon
LOX IMVI melanoma = test system: LOX IMVI melanoma
MCF7 breast = test system: MCF7 breast
OVCAR-4 ovarian = test system: OVCAR-4 ovarian
PC-3 prostate = test system: PC-3 prostate
SR leukemia = test system: SR leukemia
SW-620 colon = test system: SW-620 colon
CAKI-1 renal = test system: CAKI-1 renal

Row | SMILES | TGI (EKVX NSCLC) [µM] | TGI (HCT-15 colon) [µM] | TGI (HT29 colon) [µM] | TGI (KM12 colon) [µM] | TGI (LOX IMVI melanoma) [µM] | TGI (MCF7 breast) [µM] | TGI (OVCAR-4 ovarian) [µM] | TGI (PC-3 prostate) [µM] | TGI (SR leukemia) [µM] | TGI (SW-620 colon) [µM] | TGI (CAKI-1 renal) [µM]
1 | NC(=S)N/N=C\c1nccc2ccccc12 | 2.21 | > 100 | 30.9 | > 100 | 11.8 | 11.9 | 1.2 | > 100 | 0.731 | > 100 | 
2 | O=C(NCCCCCCNC(=O)c1cc(-c2ccccc2)nc2ccccc12)c1cc(-c2ccccc2)nc2ccccc12 | > 100 | > 100 | > 100 |  | > 100 | > 100 | > 100 | > 100 | > 100 | > 100 | > 100
3 | CC[C@H](C)[C@@H]1OC(=O)CCNC(=O)[C@@H](C)NC(=O)C(C)(C)C(=O)[C@H](C)NC(=O)[C@H](Cc2ccc(OC)cc2)N(C)C(=O)[C@H](C(C)C)N(C)C(=O)CNC(=O)[C@H](CC(C)C)N(C)C(=O)CNC1=O (cyclo(G[NMeL]G[NMeV][NMeY](Me)[X32][dA][βAla][Hmpa(2S,3S)])) | 22.7 | > 50 | 10.2 |  | 10.7 | > 50 | 3.51 | > 31.5 | > 25.9 | > 50 | 6.49
4 | CC(=O)Nc1c(C)cc2c(nc3n2CCC3O)c1[N+](=O)[O-] (stereo unspecified) | > 100 | > 100 | > 100 | > 100 | > 100 | > 100 | > 100 | > 100 |  | > 100 | > 100
5 | OCCNCNc1nc(NCNCCO)nc(N(CNCCO)CNCCO)n1 | 57 | 61.6 | 45.8 | > 59.5 | 40.2 | > 78.9 | > 65.4 | 50 |  | > 54 | 57.7
6 | CCOC(=O)NC(Nc1ccc(C(=O)OCC)cc1)(C(F)(F)F)C(F)(F)F |  | > 100 | > 100 | > 100 | > 100 | > 100 | > 100 | > 100 | > 100 | > 100 | 
7 | COC(=O)C(Cc1c[nH]c2ccccc12)NC(=O)C(Cc1c[nH]c2ccccc12)NC(=O)C(Cc1c[nH]c2ccccc12)NC(=O)C(Cc1c[nH]c2ccccc12)NC(=O)C(Cc1c[nH]c2ccccc12)NC(=O)C(Cc1c[nH]c2ccccc12)NC(=O)C(Cc1c[nH]c2ccccc12)NC(=O)C(Cc1c[nH]c2ccccc12)NC(=O)OC(C)(C)C (stereo unspecified) (Boc-WWWWWWWW-OMe; configuration not given here) |  | > 100 | > 100 |  | > 100 | > 100 | > 100 | > 100 | > 100 | > 100 | > 100
8 | Cc1cc(S(=O)(=O)Nc2nc3ccccc3c(=O)n2N)c(S)cc1Cl | > 100 | > 100 | > 100 | > 100 | > 100 | > 100 | > 100 | > 100 |  | > 100 | > 100
9 | CO/N=C(\C)c1cccc(Nc2c3ccccc3nc3occc23)c1 | 37.2 | 50.4 | 16.7 | 39.5 | 27.4 | 28.6 | 18 | > 100 | 16.4 |  | 19.2
10 | CCC(C#N)NCc1cccc(CNC(C#N)CC)c1 (stereo unspecified) | > 100 | > 100 | > 100 | > 100 | > 100 | > 100 | > 100 | > 100 |  | > 100 | > 100
11 | COCN1C(=O)[C@@H]2CCCN2C(=O)c2cc(N)ccc21 | > 100 | > 100 | > 100 | > 100 | > 100 | > 100 | > 100 | > 100 |  | > 100 | > 100
12 | Oc1ccc2c(c1)-c1c(c3ccccc3n1CCN1CCOCC1)CC2 | > 100 | > 100 | > 100 | 51.3 | > 100 | > 100 |  | > 100 | > 100 |  | > 100
13 | COc1cc(/C=c2\sc3n(c2=O)C(c2ccc(Cl)cc2)C2=C(CCCC2C)N=3)cc(OC)c1OC (stereo unspecified) | > 100 | > 100 | > 100 | > 100 | > 100 | > 100 |  | > 100 | > 100 | > 100 | > 100
14 | Cc1nc2c(=O)n(C)ncc2[nH]1 | > 100 | > 100 | > 100 | > 100 |  | > 100 |  | > 100 | > 100 | > 100 | > 100
15 | COI1NC(=O)c2ccccc21 | > 100 | > 100 | > 100 | > 100 | > 100 | > 100 | > 100 | > 100 | > 100 | > 100 | 

— PubChem BioAssay (NCI)
